Data published in patent US11634443B2, “Treprostinil prodrugs” (United Therapeutics Corporation, priority 2019, dated 2023).
Where two headings read alike, the source gives them in different places. Values belong to the substance of their own block, whether it stands above or below them.

Legend:
[1] = target: T1, prostaglandin E2 (PGE2) receptor 2 (EP2) (Homo sapiens, UniProt P43116); assay: EP2 receptor cAMP assay (agonist mode); type: cell-based; conditions: cAMP, cells overexpressing human EP2
T1 construct: expressed in transfected cells; host or cells: HEK293T
T1 sequence (P43116 whole entry): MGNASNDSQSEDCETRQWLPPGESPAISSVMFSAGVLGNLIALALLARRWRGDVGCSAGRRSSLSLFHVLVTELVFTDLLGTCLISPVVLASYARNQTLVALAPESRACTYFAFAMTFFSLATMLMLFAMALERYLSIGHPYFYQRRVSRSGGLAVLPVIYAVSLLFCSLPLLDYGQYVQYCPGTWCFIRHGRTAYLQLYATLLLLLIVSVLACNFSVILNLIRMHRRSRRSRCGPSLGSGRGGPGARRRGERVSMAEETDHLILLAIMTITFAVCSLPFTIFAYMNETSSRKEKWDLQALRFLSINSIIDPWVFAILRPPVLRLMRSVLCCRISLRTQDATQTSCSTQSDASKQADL

[2] = Stability and formation of treprostinil in human cryopreserved hepatocytes
Procedure: (§1) Mixed-gender human cryopreserved hepatocytes, male Sprague-Dawley rat cryopreserved hepatocytes, and male Beagle dog cryopreserved hepatocytes were purchased from XenoTech. The hepatocytes were thawed and prepared according to the vendor's instructions, pooled into Krebs Henseleit buffer (KHB, pH 7.4), and kept on ice prior to the experiments. […] The final DMSO content in the incubation mixture was ≤0.1%. […] Aliquots of the test article were withdrawn (n=1) at 0, 15, 30, 60, and 120 minutes. […] Aliquots of 7-HC were withdrawn (n=1) at 0 and 15 minutes. The reaction was immediately terminated by adding two volumes of ice-cold acetonitrile (ACN) to the test article samples and three volumes of ACN containing internal standard to the positive control samples.

[3] = Hydrolysis of treprostinil prodrugs to treprostinil at pH 6, 7 and 8 and 40 C; type: physicochemical
Text: Tables 26, 27 and 28 present data for hydrolysis of selected treprostinil prodrugs at pH 6, 7 and 8, respectively, and 40 C.

[4] = target: T2, prostaglandin I2 (PGI2) receptor (IP) (Homo sapiens, UniProt P43119); assay: IP receptor cAMP assay (agonist mode); type: cell-based; conditions: cAMP, cells overexpressing human IP
T2 construct: expressed in transfected cells; host or cells: CHO-K1
T2 sequence (P43119 whole entry): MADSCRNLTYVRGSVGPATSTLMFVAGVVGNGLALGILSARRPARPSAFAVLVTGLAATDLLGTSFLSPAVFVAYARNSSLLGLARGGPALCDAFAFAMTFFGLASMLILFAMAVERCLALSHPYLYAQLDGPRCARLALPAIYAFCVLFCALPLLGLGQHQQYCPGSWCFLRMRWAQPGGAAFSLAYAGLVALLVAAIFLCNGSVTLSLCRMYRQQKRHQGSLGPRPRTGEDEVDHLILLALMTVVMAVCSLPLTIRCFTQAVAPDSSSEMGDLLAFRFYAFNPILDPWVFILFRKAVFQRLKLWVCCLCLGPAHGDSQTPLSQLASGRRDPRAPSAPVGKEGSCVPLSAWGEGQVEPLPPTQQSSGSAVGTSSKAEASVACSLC

[5] = Plasma stability and formation of treprostinil, dog plasma; type: in vitro ADME; conditions: for Percent Remaining / Half-Life: 1 μM, 37° C.; for Formation of Treprostinil, Concentration: prodrug dosed at 1 μM
Procedure: (§2) Studies were carried out in mixed-gender human plasma male Sprague-Dawley rat plasma, and male Beagle dog plasma. All plasma was obtained from Bioreclamation and collected on K2EDTA. Plasma was adjusted to pH 7.4 prior to initiating the experiments. DMSO stocks were first prepared for the test articles. […] The vials were kept in a benchtop Thermomixer® for the duration of the experiment. […] Samples were stored at 4° C. until the end of the experiment. After the final time point was sampled, the plate was mixed and then centrifuged at 3000 rpm for 10 minutes.

[6] = Stability and formation of treprostinil in simulated intestinal fluid; type: in vitro ADME; conditions: for Percent Remaining / Half-Life: SIF pH 6.8, 1 μM, 37° C.; for Formation of Treprostinil, Concentration: SIF, prodrug dosed at 1 μM
[7] = target: T3, prostaglandin D2 (PGD2) receptor 1 (DP1) (Homo sapiens, UniProt Q13258); assay: DP1 receptor cAMP assay (agonist mode); type: cell-based; conditions: for Activity, DP1 Relative to Tre: relative to treprostinil EC50 values, * partial agonists or ambiguous dose-response curves
T3 construct: expressed in transfected cells; host or cells: HEK293T
T3 sequence (Q13258 1-359): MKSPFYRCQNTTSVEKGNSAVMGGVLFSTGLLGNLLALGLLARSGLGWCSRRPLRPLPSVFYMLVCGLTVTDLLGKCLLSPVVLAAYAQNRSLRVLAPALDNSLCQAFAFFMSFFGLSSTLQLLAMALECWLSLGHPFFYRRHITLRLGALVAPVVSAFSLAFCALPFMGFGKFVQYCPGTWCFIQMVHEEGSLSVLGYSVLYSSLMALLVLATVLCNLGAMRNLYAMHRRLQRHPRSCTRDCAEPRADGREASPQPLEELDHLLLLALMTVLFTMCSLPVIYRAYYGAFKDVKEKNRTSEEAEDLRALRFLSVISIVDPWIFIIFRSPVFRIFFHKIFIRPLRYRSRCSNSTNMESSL

[8] = Stability and formation of treprostinil in rat cryopreserved hepatocytes
Procedure: as §1

[9] = Stability and formation of treprostinil in dog cryopreserved hepatocytes
Procedure: as §1

[10] = Plasma stability and formation of treprostinil, human plasma; type: in vitro ADME; conditions: for Percent Remaining / Half-Life: 1 μM, 37° C.; for Formation of Treprostinil, Concentration: prodrug dosed at 1 μM
Procedure: as §2

[11] = Plasma stability and formation of treprostinil, rat plasma; type: in vitro ADME; conditions: for Percent Remaining / Half-Life: 1 μM, 37° C.; for Formation of Treprostinil, Concentration: prodrug dosed at 1 μM
Procedure: as §2

[12] = microsomes
[13] = microsomes; remark: listed apart in the source

Substance: treprostinil dipropionate [Prodrug LXX]
Activity at the EP2 receptor compared to treprostinil [1]: inactive
Treprostinil Concentration, 0 min [2]: 0.00542 µM
Treprostinil Concentration, 15 min [2]: 0.638 µM
Treprostinil Concentration, 30 min [2]: 0.556 µM
Treprostinil Concentration, 60 min [2]: 0.482 µM
Treprostinil Concentration, 120 min [2]: 0.413 µM
Hydrolysis of prodrug to treprostinil, % Area, t = 1 week ([3]; pH 6, 40 C): 0.00 % Area
Hydrolysis of prodrug to treprostinil, % Area, t = 2 weeks ([3]; pH 6, 40 C): 0.00 % Area
Hydrolysis of prodrug to treprostinil, % Area, t = 3 weeks ([3]; pH 6, 40 C): 0.00 % Area
Hydrolysis of prodrug to treprostinil, % Area, t = 1 week ([3]; pH 7, 40 C): 0.00 % Area
Hydrolysis of prodrug to treprostinil, % Area, t = 2 weeks ([3]; pH 7, 40 C): 0.00 % Area
Hydrolysis of prodrug to treprostinil, % Area, t = 3 weeks ([3]; pH 7, 40 C): 0.00 % Area
Hydrolysis of prodrug to treprostinil, % Area, t = 1 week ([3]; pH 8, 40 C): 0.00 % Area
Hydrolysis of prodrug to treprostinil, % Area, t = 2 weeks ([3]; pH 8, 40 C): 0.00 % Area
Hydrolysis of prodrug to treprostinil, % Area, t = 3 weeks ([3]; pH 8, 40 C): 0.00 % Area
Activity at the IP receptor compared to treprostinil [4]: inactive
Percent Remaining ([5]; 0 min): 100%
Formation of Treprostinil, Concentration ([5]; 0 min): 0 µM
Half-Life [5]: >120 min
Percent Remaining ([5]; 15 min): 103%
Formation of Treprostinil, Concentration ([5]; 15 min): 0 µM
Percent Remaining ([5]; 30 min): 116%
Formation of Treprostinil, Concentration ([5]; 30 min): 0 µM
Percent Remaining ([5]; 60 min): 97.4%
Percent Remaining ([5]; 120 min): 91.4%
Formation of Treprostinil, Concentration ([5]; 120 min): 0 µM
Formation of Treprostinil, Concentration [5]: 0 µM
Percent Remaining ([6]; 0 min): 100%
Half-Life [6]: >120 min
Percent Remaining ([6]; 15 min): 97.2%
Percent Remaining ([6]; 30 min): 104%
Percent Remaining ([6]; 60 min): 93.6%
Percent Remaining ([6]; 120 min): 86.2%
Formation of Treprostinil, Concentration ([6]; 0 min): 0 µM
Formation of Treprostinil, Concentration ([6]; 15 min): 0 µM
Formation of Treprostinil, Concentration ([6]; 30 min): 0 µM
Formation of Treprostinil, Concentration ([6]; 60 min): 0.00415 µM
Formation of Treprostinil, Concentration ([6]; 120 min): 0.0720 µM
EC50 Fold Different from Treprostinil, DP1 Receptor ([7]; Table 20, agonist mode, NC = too inactive to realistically calculate, * partial agonists or odd dose-response curves): 410x*
Activity, DP1 Relative to Tre ([7]; Table 24, image character = too high to realistically calculate): 410x
Activity, DP1 Relative to Tre ([7]; Table 25): 410x
Activity at the DP1 receptor compared to treprostinil ([7]; cAMP, cells overexpressing human DP1): several hundred-fold less active
Treprostinil Concentration, 0 min [8]: 0 µM
Treprostinil Concentration, 15 min [8]: 0.606 µM
Treprostinil Concentration, 30 min [8]: 0.579 µM
Treprostinil Concentration, 60 min [8]: 0.484 µM
Treprostinil Concentration, 120 min [8]: 0.405 µM
Treprostinil Concentration, 0 min [9]: 0.0959 µM
Treprostinil Concentration, 15 min [9]: 0.736 µM
Treprostinil Concentration, 30 min [9]: 0.597 µM
Treprostinil Concentration, 60 min [9]: 0.511 µM
Treprostinil Concentration, 120 min [9]: 0.445 µM
CLint ([9]; hepatocytes): >0.0308 mL/min/mg protein
Half-Life ([9]; hepatocytes): <15 min
Percent Remaining ([10]; 0 min): 100%
Formation of Treprostinil, Concentration ([10]; 0 min): 0 µM
Half-Life [10]: >120 min
Percent Remaining ([10]; 15 min): 92.4%
Formation of Treprostinil, Concentration ([10]; 15 min): 0 µM
Percent Remaining ([10]; 30 min): 102%
Formation of Treprostinil, Concentration ([10]; 30 min): 0 µM
Percent Remaining ([10]; 60 min): 93.3%
Percent Remaining ([10]; 120 min): 103%
Formation of Treprostinil, Concentration ([10]; 120 min): 0 µM
Formation of Treprostinil, Concentration [10]: 0 µM
Percent Remaining ([11]; 0 min): 100%
Formation of Treprostinil, Concentration ([11]; 0 min): 0 µM
Half-Life [11]: 102 min
Formation of Treprostinil, Concentration ([11]; 60 mm): 0.0331 µM
Percent Remaining ([11]; 15 min): 98.3%
Formation of Treprostinil, Concentration ([11]; 15 min): 0.00392 µM
Percent Remaining ([11]; 30 min): 80.3%
Formation of Treprostinil, Concentration ([11]; 30 min): 0.0101 µM
Percent Remaining ([11]; 60 min): 69.3%
Percent Remaining ([11]; 120 min): 45.0%
Formation of Treprostinil, Concentration ([11]; 120 min): 0.0768 µM
Half-Life [12]: <10 min
Half-Life [13]: <10 min

Activity at the EP2 receptor compared to treprostinil [1]: inactive
Treprostinil Concentration, 0 min [2]: 0 µM
Treprostinil Concentration, 15 min [2]: 0.118 µM
Treprostinil Concentration, 30 min [2]: 0.211 µM
Treprostinil Concentration, 60 min [2]: 0.273 µM
Treprostinil Concentration, 120 min [2]: 0.259 µM
Hydrolysis of prodrug to treprostinil, % Area, t = 1 week ([3]; pH 6, 40 C): 0.00 % Area
Hydrolysis of prodrug to treprostinil, % Area, t = 2 weeks ([3]; pH 6, 40 C): 0.00 % Area
Hydrolysis of prodrug to treprostinil, % Area, t = 3 weeks ([3]; pH 6, 40 C): 0.00 % Area
Hydrolysis of prodrug to treprostinil, % Area, t = 1 week ([3]; pH 7, 40 C): 0.00 % Area
Hydrolysis of prodrug to treprostinil, % Area, t = 2 weeks ([3]; pH 7, 40 C): 0.00 % Area
Hydrolysis of prodrug to treprostinil, % Area, t = 3 weeks ([3]; pH 7, 40 C): 0.00 % Area
Hydrolysis of prodrug to treprostinil, % Area, t = 1 week ([3]; pH 8, 40 C): 0.00 % Area
Hydrolysis of prodrug to treprostinil, % Area, t = 2 weeks ([3]; pH 8, 40 C): 0.00 % Area
Hydrolysis of prodrug to treprostinil, % Area, t = 3 weeks ([3]; pH 8, 40 C): 0.38 % Area
Activity at the IP receptor compared to treprostinil [4]: inactive
Half-Life [5]: >120 min
Half-Life [6]: >120 min
Formation of Treprostinil, Concentration ([6]; 0 min): 0 µM
Formation of Treprostinil, Concentration ([6]; 15 min): 0 µM
Formation of Treprostinil, Concentration ([6]; 30 min): 0 µM
Formation of Treprostinil, Concentration ([6]; 60 min): 0 µM
Formation of Treprostinil, Concentration ([6]; 120 min): 0.0121 µM
Treprostinil Concentration, 0 min [8]: 0 µM
Treprostinil Concentration, 15 min [8]: 0.422 µM
Treprostinil Concentration, 30 min [8]: 0.403 µM
Treprostinil Concentration, 60 min [8]: 0.347 µM
Treprostinil Concentration, 120 min [8]: 0.292 µM
Treprostinil Concentration, 0 min [9]: 0.00293 µM
Treprostinil Concentration, 15 min [9]: 0.501 µM
Treprostinil Concentration, 30 min [9]: 0.408 µM
Treprostinil Concentration, 60 min [9]: 0.348 µM
Treprostinil Concentration, 120 min [9]: 0.303 µM
Half-Life [10]: >120 min
Half-Life [11]: <15 min
Substance: treprostinil dicarbonate [Prodrug LXXI]
